Data on 41 molecules can be found in the Kinase Knowledgebase extract (Sharma et al. 2016).

The target in one experiment is CDK2 (human) (UniProt P24941). The experiment can be described thus: Cell-Based Assay.
In the next experiment the target is CDK2 (UniProt P24941). As to the kind of experiment: Enzyme Assay.
A further experiment relates to CDK2 (rat). As to the kind of experiment: Cell-Based Assay. Conditions: rasmc.
The subject of the next experiment is CDK2 (murine). The experiment can be described thus: Animal Model. Conditions: l1210.

Converted amounts (≈) assume the structure as drawn. “And” between values parts separate entries of the source, which are not always exact repeats. Identical values can stand only once.

`COc1ccc(CNc2nc(N3CCOCC3)nc3c2ncn3C(C)C)cc1`: the IC50 (commonly the concentration needed to halve the response being measured) on CDK2 (human) (ovcar) was found to be 4 µg/mL (≈ 10.5 µM); at CDK2 (human) (panc1), 5.5 µg/mL (≈ 14.4 µM).

As for `Cn1cnc2c(OCc3ccc(Cl)cc3)nc(Cl)nc21`, the IC50 against CDK2 amounted to 60 µg/mL (≈ 194 µM).

For `COc1ccc(CNc2nc(N(CCO)CCO)nc3c2ncn3C(F)(C(F)(F)F)C(F)(F)F)cc1`, the half-inhibitory concentration (IC50) on CDK2 came to 40 µg/mL (≈ 76 µM).

On to `COc1ccc(CNc2nc(NC(C)(CO)C(C)C)nc3c2ncn3C(C)C)cc1` (centres undefined), for which the IC50 against CDK2 was 1 µg/mL (≈ 2.42 µM).

In the case of `COc1ccc(CNc2nc(Cl)nc3c2ncn3CCCC#N)cc1`, at CDK2, the IC50 was > 60 µg/mL.

For the molecule `OCCNc1nc(NCc2ccccc2)nc2[nH]cnc12`, the IC50 at CDK2 was > 60 µg/mL.

In turn, `CC(C)n1cnc2c(NCc3ccc(F)cc3)nc(NC[C@H]3CCCO3)nc21` registered an IC50 against CDK2 of 0.58 µg/mL (≈ 1.51 µM).

`CC(C)n1cnc2c(NCc3ccc(-c4cccs4)cc3)nc(N(CCO)CCO)nc21` had an IC50 on CDK2 of 0.5 µg/mL (≈ 1.1 µM).

Take `CC(=O)C(C)n1cnc2c(NCc3ccc(Cl)cc3)nc(N(CCO)CCO)nc21` (centres undefined): the IC50 at CDK2 came to 37 µg/mL (≈ 85.5 µM).

`CC(C)n1cnc2c(NCc3ccc(-c4ccccn4)cc3)nc(N(CCO)CCO)nc21`: the IC50 at CDK2 came to 0.16 µg/mL (≈ 0.358 µM).

As to `CC(C)n1cnc2c(Nc3ccc(-c4ccccc4)cc3)nc(N(CCO)CCO)nc21`, the IC50 came to 0.6 µg/mL (≈ 1.39 µM) at CDK2; 0.5 µg/mL (≈ 1.16 µM) at CDK2 (human) (caco-2); 4 µg/mL (≈ 9.25 µM) against CDK2 (human) (mcf-7); 7 µg/mL (≈ 16.2 µM) at CDK2 (human) (ovcar); 4 µg/mL (≈ 9.25 µM) on CDK2 (human) (panc1); 1 µg/mL (≈ 2.31 µM) in the experiment with CDK2 (rat).

In turn, `CSc1cccc(Nc2nc(N(CCO)CCO)nc3c2ncn3C(C)C)c1` showed an IC50 on CDK2 of 0.1 µg/mL (≈ 0.248 µM).

In turn, `CC(C)n1cnc2c(NCc3ccc(Cl)cc3)nc(N[C@H](C)CO)nc21` gave an IC50 against CDK2 of 0.35 µg/mL (≈ 0.934 µM).

`CSc1ccc(Nc2nc(N(CCO)CCO)nc3c2ncn3C(C)C)cc1` returned an IC50 against CDK2 of 0.07 µg/mL (≈ 0.174 µM).

In turn, `CC(C)n1cnc2c(NCc3ccc(Cl)cc3)nc(NCCNCCO)nc21` registered an IC50 against CDK2 of 2.02 µg/mL (≈ 5 µM).

With `CC(C)n1cnc2c(NCc3ccc(F)cc3)nc(NC[C@@H](C)O)nc21`, the IC50 against CDK2 stood at 0.23 µg/mL (≈ 0.642 µM).

In the case of `CC(N)CNc1nc(NCc2ccc(Cl)cc2)c2ncn(C(C)C)c2n1` (centres undefined), the IC50 against CDK2 was determined as 0.05 µg/mL (≈ 0.134 µM); against CDK2 (human) (mrc 5), 1 µg/mL (≈ 2.67 µM).

Consider `CC(C)n1cnc2c(NCc3ccc(Cl)cc3)nc(NC[C@@H](C)O)nc21`, for which the IC50 at CDK2 stood at 0.43 µg/mL (≈ 1.15 µM).

Molecule `COc1ccc(CNc2nc(N(CCO)CCO)nc3c2ncn3C)cc1` yielded an IC50 at CDK2 of 4 µg/mL (≈ 10.7 µM).

With `CC(C)n1cnc2c(NCc3ccc(Cl)cc3)nc(NCC(O)c3ccccc3)nc21` (centres undefined), at CDK2, the IC50 came to 0.08 µg/mL (≈ 0.183 µM).

Molecule `CC(=O)C(C)n1cnc2c(NCc3ccc(F)cc3)nc(N(CCO)CCO)nc21` (centres undefined) gave an IC50 at CDK2 of 11 µg/mL (≈ 26.4 µM).

`CSc1ccc(Nc2nc(Cl)nc3c2ncn3C(C)C)cc1` had an IC50 at CDK2 of 0.6 µg/mL (≈ 1.8 µM).

`CC(C)n1cnc2c(NCc3ccc(Cl)cc3)nc(NC[C@H](C)O)nc21` registered an IC50 at CDK2 of 0.38 µg/mL (≈ 1.01 µM).

Regarding `COc1ccc(CNc2nc(Cl)nc3c2ncn3Cc2ccccc2)cc1`, on CDK2, the IC50 was > 60 µg/mL.

The molecule `CC(C)n1cnc2c(NCc3ccc(Cl)cc3)nc(NCCCCCN)nc21` showed an IC50 against CDK2 of 31 µg/mL (≈ 77.1 µM).

On to `CC(C)n1cnc2c(Nc3ccccc3)nc(Cl)nc21`, for which the IC50 on CDK2 was 1 µg/mL (≈ 3.48 µM).

Consider `COc1ccc(CNc2nc(Cl)nc3c2ncn3C(F)(F)F)cc1`, for which the IC50 at CDK2 was > 60 µg/mL.

Turning to `COc1ccc(CNc2nc(N3CC=CC3)nc3c2ncn3C(C)C)cc1`, the IC50 against CDK2 is 1 µg/mL (≈ 2.74 µM).

As to `CC(C)n1cnc2c(NCc3ccc(F)cc3)nc(N(CCO)CCO)nc21`, the half-inhibitory concentration (IC50) against CDK2 stood at 0.15 µg/mL (≈ 0.386 µM).

On CDK2, `Cc1ccc(-c2ccc(CNc3nc(N(CCO)CCO)nc4c3ncn4C(C)C)cc2)cc1` had an IC50 of 0.6 µg/mL (≈ 1.3 µM).

Consider `FC(F)(F)n1cnc2c(OCc3ccc(Cl)cc3)nc(Cl)nc21`, for which the IC50 at CDK2 was > 60 µg/mL.

Take `COc1ccc(CNc2nc(N(CCO)Cc3ccccc3)nc3c2ncn3C(C)C)cc1`: the IC50 against CDK2 stood at 1 µg/mL (≈ 2.24 µM).

Take `CC(C)[C@H](CO)Nc1nc(NCc2ccc(Cl)cc2)c2ncn(C(C)C)c2n1`: on CDK2, the IC50 amounted to 0.19 µg/mL (≈ 0.472 µM).

Consider `CC(C)n1cnc2c(NCc3ccc(Cl)cc3)nc(N[C@@H](Cc3ccccc3)C(N)=O)nc21`, for which the IC50 on CDK2 was found to be 1.07 µg/mL (≈ 2.31 µM).

Take `CC(C)n1cnc2c(NCc3ccc(Cl)cc3)nc(NCCCN)nc21`: the IC50 against CDK2 came to 1 µg/mL (≈ 2.67 µM).

As for `COc1cccc(CNc2nc(N(CCO)CCO)nc3c2ncn3C(C)C)c1`, at CDK2, the IC50 came out at 0.5 µg/mL (≈ 1.25 µM).

Turning to `CC(C)n1cnc2c(NCc3ccc(S(N)(=O)=O)cc3)nc(NCCN)nc21`, the IC50 at CDK2 is 9 µg/mL (≈ 22.2 µM).

`CC(C)n1cnc2c(NCc3ccc(F)cc3)nc(NC[C@@H]3CCCO3)nc21` gave an IC50 at CDK2 of 0.63 µg/mL (≈ 1.64 µM).

Regarding `COc1ccc(CNc2nc(N(CCO)CCO)nc3c2ncn3C(C)C)cc1`, the MST in the experiment with CDK2 (murine) is 13 d (3×) and 11 d and 12 d. In the experiment on CDK2 (rat), this molecule returned a half-maximal inhibitory concentration (IC50) of 0.5 µg/mL (≈ 1.25 µM).

Turning to `Clc1ccc(COc2nc(Cl)nc3[nH]cnc23)cc1`, at CDK2, the IC50 stood at 60 µg/mL (≈ 203 µM).

`FC(F)(F)n1cnc2c(NCc3ccc(Cl)cc3)nc(Cl)nc21` had an IC50 on CDK2 of 1 µg/mL (≈ 2.76 µM).
